Assay results reported in patent publication US7951385B2, “Probiotic strain and antimicrobial peptide derived therefrom” (Cipla Medpro Research and Development (Pty) Ltd., priority 2006, dated 2011).

Key:
Enterococcus spp. HKLHS [1] = test: Extracellular DNA after treatment of pathogens with peptide ST4SA; type: cell-based; conditions: Control organism Enterococcus spp. HKLHS
From the text: (§1) Further evidence of cell membrane damage and leakage of cellular constituents was obtained by testing for extracellular DNA and extracellular β-galactosidase activity.

Klebsiella pneumoniae [2] = test: as above; type: cell-based; conditions: Klebsiella pneumoniae 30
From the text: as §1

[3] = system: Middle ear isolates (unknown); test: as above; type: cell-based
From the text: as §1

Pseudomonas auringinosa = test: as above; type: cell-based; conditions: Pseudomonas auringinosa E
From the text: as §1

Staphylococcus aureus [4] = test: as above; type: cell-based; conditions: Staphylococcus aureus 36
From the text: as §1

Streptococcus pneumoniae [5] = test: as above; type: cell-based
From the text: as §1

Streptococcus pyogenes [6] = test: as above; type: cell-based; conditions: Streptococcus pyogenes 20
From the text: as §1

Enterococcus spp. HKLHS [7] = test: β-galactosidase leakage after treatment of pathogens with peptide ST4SA; type: cell-based; conditions: Control organism Enterococcus spp. HKLHS
From the text: as §1

Klebsiella pneumoniae [8] = test: as above; type: cell-based; conditions: Klebsiella pneumoniae 30
From the text: as §1

[9] = system: Middle ear isolates (unknown); test: as above; type: cell-based
From the text: as §1

Staphylococcus aureus [10] = test: as above; type: cell-based; conditions: Staphylococcus aureus 36
From the text: as §1

Streptococcus pneumoniae [11] = test: as above; type: cell-based
From the text: as §1

Streptococcus pyogenes [12] = test: as above; type: cell-based; conditions: Streptococcus pyogenes 20
From the text: as §1

[13] = system: pathogens (Streptococcus pneumoniae, Klebsiella pneumoniae, middle ear isolates); test: Cell lysis / growth inhibition of pathogens in BHI broth; type: cell-based; conditions: peptide added at mid-exponential phase, BHI broth (FIGS. 15 to 23)
Experimental: A 0.2% (v/v) inoculum of an overnight pathogen was inoculated into BHI broth. Peptide ST4SA was added to each pathogen at mid-exponential phase.

virulence factors = test: Virulence factors assayed (in vitro tests and/or PCR screening); set-up: species or system Enterococcus mundtii
From the text: The presence of virulence factors, viz. vancomycin resistance (VanA/VanB/VanC1/VanC2/VanC3), production of gelatinase (Gel), aggregation substance (AS), adhesin of collagen from enterococci (Ace), enterococcus surface protein (Esp), haemolysin/bacteriocin (Cyl) and non-cytolysin beta hemolysin genes were studied by in vitro tests and/or PCR screening. DNA was extracted from E. mundtii ST4 according to standard methods. The primers designed for amplification of the latter genes were as described.

pathogens tested = test: Adhesion of peptide ST4SA to pathogens (summary); type: binding; conditions: conclusion for the pathogens tested (Table 7)
From the text: Binding of peptide ST4SA to target cells is important to ensure penetration of the peptide. The ability of peptide ST4SA to adhere to pathogens was studied and the results were expressed as a percentage binding to the pathogens (Table 7). […] Adhesion of peptide ST4SA to the target cell leads to penetration and disruption of the cell membrane (FIG. 14).

## Peptide ST4SA: broad-spectrum antibacterial peptide (bacteriocin) produced by Enterococcus mundtii strain ST4SA, SEQ. ID. NO. 12 (MSQVVGGKYYGNGVSCNKKGCSVDWGKAIGIIGNNSAANLATGGAAGWKS; ENTEROCOCCUS MUNDTII ST4SA)
Enterococcus spp. HKLHS [1]
  DNA-leakage (O.D. readings at 260 nm): 1.395
Klebsiella pneumoniae [2]
  DNA-leakage (O.D. readings at 260 nm): 1.01
[3]; Middle ear isolate 40
  DNA-leakage (O.D. readings at 260 nm): 0.801
[3]; Middle ear isolate BW
  DNA-leakage (O.D. readings at 260 nm): 1.186
[3]; Middle ear isolate DW
  DNA-leakage (O.D. readings at 260 nm): 1.153
[3]; Middle ear isolate F
  DNA-leakage (O.D. readings at 260 nm): 1.428
[3]; Middle ear isolate GW
  DNA-leakage (O.D. readings at 260 nm): 0.751
[3]; Middle ear isolate HW
  DNA-leakage (O.D. readings at 260 nm): 1.559
[3]; Middle ear isolate K
  DNA-leakage (O.D. readings at 260 nm): 0.455
[3]; Middle ear isolate L
  DNA-leakage (O.D. readings at 260 nm): 0.592
[3]; Middle ear isolate M
  DNA-leakage (O.D. readings at 260 nm): 0.326
Pseudomonas auringinosa
  DNA-leakage (O.D. readings at 260 nm): 0.187
Staphylococcus aureus [4]
  DNA-leakage (O.D. readings at 260 nm): 0.892
Streptococcus pneumoniae [5]; Streptococcus pneumoniae 27
  DNA-leakage (O.D. readings at 260 nm): 1.670
Streptococcus pneumoniae [5]; Streptococcus pneumoniae 29
  DNA-leakage (O.D. readings at 260 nm): 1.182
Streptococcus pneumoniae [5]; Streptococcus pneumoniae D
  DNA-leakage (O.D. readings at 260 nm): 1.160
Streptococcus pyogenes [6]
  DNA-leakage (O.D. readings at 260 nm): 0.930
Enterococcus spp. HKLHS [7]
  β-galactosidase recorded at OD420: No leakage
Klebsiella pneumoniae [8]
  β-galactosidase recorded at OD420: No leakage
[9]; Middle ear isolate BW
  β-galactosidase recorded at OD420: 0.370
[9]; Middle ear isolate DW
  β-galactosidase recorded at OD420: 0.293
[9]; Middle ear isolate F
  β-galactosidase recorded at OD420: 0.318
[9]; Middle ear isolate GW
  β-galactosidase recorded at OD420: 0.373
[9]; Middle ear isolate HW
  β-galactosidase recorded at OD420: 0.235
[9]; Middle ear isolate K
  β-galactosidase recorded at OD420: No leakage
[9]; Middle ear isolate L
  β-galactosidase recorded at OD420: No leakage
[9]; Middle ear isolate M
  β-galactosidase recorded at OD420: No leakage
Staphylococcus aureus [10]
  β-galactosidase recorded at OD420: No leakage
Streptococcus pneumoniae [11]; Streptococcus pneumoniae 27
  β-galactosidase recorded at OD420: No leakage
Streptococcus pneumoniae [11]; Streptococcus pneumoniae 29
  β-galactosidase recorded at OD420: No leakage
Streptococcus pneumoniae [11]; Streptococcus pneumoniae D
  β-galactosidase recorded at OD420: No leakage
Streptococcus pyogenes [12]
  β-galactosidase recorded at OD420: No leakage
[13]
  Mode of action on pathogens: acted in a bactericidal manner against most pathogens
Virulence factors
  Virulence factor AS (Aggregation substance): −
  Virulence factor Ace (Adhesin to collagen from E. faecalis): −
  Virulence factor Cyl (Cytolysin, β-hemolysin activity): +
  Virulence factor Efa-Afm (E. faecium endocarditis antigen): −
  Virulence factor Efa-Afs (E. faecalis endocarditis antigen): −
  Virulence factor Esp (Enterococcus surface protein): −
  Virulence factor Gel (Gelatinase production): −
  Virulence factor Non-cyt (non-cytolysin beta hemolysin III): +
  Virulence factor Van A (Vancomycin resistance): −
  Virulence factor Van B (Vancomycin resistance): −
  Virulence factor Van C1/2/3: −
Pathogens tested
  percentage binding to the pathogens: at least 75%
